24 compounds from US20070299114A1, “Biaryl Derivatives” (Shionogi & Co., Ltd., priority 2004, published 2007) can be followed below.

One series deals with anti-OVA IgE antibody. The series can be described thus: suppression of IgE antibody production to anti-ovalbumin (OVA) in immunized mice, PCA titer. It counts as in vivo. As to conditions: anti-OVA IgE antibody value (PCA titer, Log2 of maximum serum dilution rate) in BALB/c mice. On the procedure:
Effect of Suppression of IgE Antibody Production to Anti-Ovalbumin (OVA)
BALB/c mice (female, 8 to 10 week old) purchased from Japan Charles River (Kanagawa) and Wistar rats (female, 8 to 10 week old) purchased from Japan SLC (Sizuoka) were used.
BALB/c mice were immunized by intraperitoneally injecting 0.2 ml of a solution obtained by suspending 2 μg of ovalbumin (OVA) and an aluminum hydroxide gel (1 mg) in a brine. After ten days, blood was taken from a heart, the serum was separated, and an IgE antibody value was measured.
[…] Administration was performed from immunization date to the day before blood collection for consecutive 10 days.
4) Measurement of Anti-OVA IgE Antibody Value (PCA Titer)
The resulting mouse serum was prepared into a 2-fold dilution series with a brine, and each 50 μl of this was subcutaneously injected into a back of a pre-shaved Wistar rat. After 24 hours, 0.5 ml of a brine containing 1 mg of OVA and 5 mg of an Evans Blue dye was intravenously injected to induce a passive skin anaphylactic reaction (PCA).

The next series deals with Human lymphocyte. The series can be described thus: suppression of IgE antibody production in human lymphocyte stimulated with anti-human CD40 antibody and IL-4. The format is cell-based. The following applies: 216 h; IgE antibody production by human lymphocyte, anti-human CD40 antibody + IL-4, cultured for 9 days, ELISA. As for the experimental part: Effect of Suppressing Antibody Production Using Human Lymphocyte
1) Human Peripheral Blood
Human peripheral blood was collected with a plastic syringe containing heparin (final concentration 1.5%) from a vein of an adult healthy person, and subjected to collection of lymphocyte immediately after blood collection.
To the RPMI medium (Sigma) were added 10% of fetal bovine serum, (HyClone Lab.) which had been immobilized at 56° C. for 30 minutes, penicillin (100 units/ml) and streptomycin (100 μg/ml) (Invitrogen), which was used.
The present compound was dissolved in dimethyl sulfoxide (Nakalai Tesque) to 2 mg/ml and, thereafter, the solution was diluted with a medium to a final concentration of 0.01 pg/ml to 10 μg/ml.
Human peripheral blood was mixed with an equal amount of PBS-10 mM EDTA, 10 ml of this was overlaid on a tube containing 3 ml of Ficoll-Paque Plus (Pharmacia Biotech), followed by centrifugation at room temperature and 300×g for 30 minutes to obtain a lymphocyte layer. The collected cell suspension was centrifugation-washed with a sterilized Hanks's balanced salt solution (Invitrogen), passed through a nylon mesh, and centrifugation-washed with a medium, which was used in an experiment as human lymphocyte.
5) Inducement of IgE Antibody Production Due to B cell Stimulation
Human lymphocyte was seeded on a 96-well culturing plate (Sumitomo Bakelite) to 2×10^5 cells per well, and the compound, an anti-human CD40 antibody (Pharmingen, 2 μg/ml), and human recombinant interleukin-4 (IL-4) (PEPROTECH, 0.1 μg/ml) were added, followed by culturing at 37° C. under the presence of 5% CO2 (0.2 ml/well). After cultured for 9 days, an amount of an antibody produced in the supernatant was quantitated by a specific ELISA method.
6) Quantitation of IgE Antibody
For quantitating IgE, a commercially available kit, MESACUP IgE Test (Medical & Biological Laboratories Co., Ltd.) was used. An experimental method was according to the manual, an experiment was performed duplicately, and an average was obtained.

Series [1] has as its target T1, dihydrooroate dehydrogenase (Homo sapiens, UniProt Q02127).
T1 construct: ultracentrifugation at 4° C. and 120,000×g for 60 minutes afforded a mitochondrial/microsomal fraction; endogenous in cells; host or cells: U-937 (human histiocytic lymphoma cell line), mitochondrial/microsomal fraction
The series is described as follows: dihydroorotate dehydrogenase inhibition, U-937 mitochondrial/microsomal fraction, DCIP absorbance at 620 nm. The format is biochemical. As to conditions: DHODH of human U-937 cell mitochondrial/microsomal fraction; 37° C., 120 minutes. As for the experimental part:
Method of Testing dihydrooroate dehydrogenase Inhibition
Human U-937 cell (human histiocytic lymphoma cell line) was sonicated in a homogenizing buffer (20 mM Tris-HC1, pH 7.4, containing 2 mM EDTA and protease inhibitor cocktail), and this was centrifuged at 4° C. and 1,200×g for 15 minutes to remove cell debris. Further, ultracentrifugation at 4° C. and 120,000×g for 60 minutes afforded a mitochondrial/microsomal fraction. The resulting fraction was quantitated for a protein, and prepared to 10 mg/ml, which was freezing-stored in a −40° C. in a refrigerator until measurement. To 150 μl of the reaction solution (50 mM Tris-HC1, pH 7.4, containing 0.1% Triton X-100, 1 mM KCN, 100 μM coenzyme Q10, 200 μM DCIP), were added 10 μl of a dilution series of the compound and 0.2 mg of a mitochondrial/microsomal fraction, followed by pre-incubation at 37° C. for 30 minutes. Then, 20 μl of a 5 mM DHO solution (final concentration […]), which is a substrate, was added, this was incubated at 37° C. for 120 minutes, and an absorbance at a measurement wavelength of 620 nm was measured. A rate of suppression of a compound at each concentration relative to a change in an absorbance due to the enzyme reaction was obtained, and a concentration indicating 50% inhibition (IC50 value) was calculated to assess the inhibition activity of the compound.

The mark [2] stands for this setting: dose 10 mg/kg orally for consecutive 10 days.
Where [3] appears, read: dose 40 mg/kg orally for consecutive 10 days.

T1 sequence (Q02127 whole entry): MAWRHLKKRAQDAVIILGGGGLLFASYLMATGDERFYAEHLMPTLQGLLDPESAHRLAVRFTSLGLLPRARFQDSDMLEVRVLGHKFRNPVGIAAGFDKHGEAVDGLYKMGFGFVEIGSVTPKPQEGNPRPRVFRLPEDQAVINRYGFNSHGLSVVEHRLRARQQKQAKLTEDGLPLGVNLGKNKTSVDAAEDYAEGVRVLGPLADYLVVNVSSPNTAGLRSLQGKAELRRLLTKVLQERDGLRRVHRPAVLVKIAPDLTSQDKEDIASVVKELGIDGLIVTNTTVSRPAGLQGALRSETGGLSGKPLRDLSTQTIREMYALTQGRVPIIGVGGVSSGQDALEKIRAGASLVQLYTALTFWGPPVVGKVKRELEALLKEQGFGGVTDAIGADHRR

For `COc1cc(-c2ccc(NC(C)C)cc2F)c(OC)cc1/C=C(\C)C(=O)O` [Compound 22], the melting point (usually the temperature, or range, at which the solid turns liquid) lay in the range of 213 to 216 °C.

In the series on anti-OVA IgE antibody (setting [2]), `C/C(=C\c1c(C)c(C)c(-c2ccc(NC3CCCC3)cc2F)c(C)c1C)C(=O)NC1CCCC1` [Compound 459] had a PCA of 2.7. The IC50 (commonly the concentration at which inhibition is half-maximal) in the series on Human lymphocyte came out at 0.8 ng/mL.

Regarding `C/C(=C\c1c(C)c(F)c(-c2ccc(NC(C)C)cc2)c(C)c1F)C(=O)O` [Compound 486], the PCA in the series with anti-OVA IgE antibody (setting [2]) is listed as 0<. Further, the IC50 in the series with Human lymphocyte stood at 13.5 ng/mL.

As to `COc1c(C)c(-c2ccc(NC3CCCCC3)cc2)c(OC)c(C)c1/C=C(\C)C(=O)N[C@H](C)C(=O)O` [Compound 562], the PCA in the series on anti-OVA IgE antibody (setting [3]) is listed as 0<. The IC50 in the series with Human lymphocyte came out at 8.4 ng/mL.

Take `C/C(=C\C(=O)NC(C)C)c1cc(C)c(-c2ccc3[nH]ccc3c2)cc1C` [Compound 252]: the IC50 is 13.6 nM in series [1] and 75 ng/mL in the series with Human lymphocyte. Further, the PCA with anti-OVA IgE antibody (setting [3]) is listed as 0<.

For the compound `COc1c(C)c(-c2ccc(NCc3ccc(C)o3)cc2)c(OC)c(C)c1/C=C(\C)C(=O)O` [Compound 571], the PCA in the series with anti-OVA IgE antibody (setting [2]) is on record as 1.3. Moreover, the IC50 in the series on Human lymphocyte worked out at 6.4 ng/mL.

Consider `Cc1cc(-c2ccc(NC3CCCC3)cc2)c(C)cc1/C=C(\F)C(=O)NCCC(=O)O` [Compound 408], for which, in the series on anti-OVA IgE antibody (setting [3]), the PCA was 0<. Moreover, the IC50 in the series with Human lymphocyte turned out to be 8 ng/mL.

As for `C/C(=C\c1cc(F)c(-c2ccc(NC(C)C)cc2)cc1F)C(=O)NCC(=O)O` [Compound 21], the melting point lay within 156 to 158 °C.

On to `CC/C(=C\c1c(C)c(F)c(-c2ccc(NC(C)C)cc2)c(C)c1F)C(=O)N[C@H](C)C(=O)O` [Compound 495], for which the PCA in the series with anti-OVA IgE antibody (setting [2]) is 4.7. Further, in the series on Human lymphocyte, the IC50 was found to be 41 ng/mL.

Turning to `Cc1cc(-c2ccc(NC(C)C)cc2F)c(C)cc1/C=C(/F)C(=O)NC(C)C` [Compound 201], the IC50 is 5.17 nM in series [1] and 0.6 ng/mL in the series with Human lymphocyte. Besides, the PCA in the series on anti-OVA IgE antibody (setting [2]) turned out to be 5.3.

`C/C(=C\c1cc(C)c(-c2ccc(NC(C)C)cc2)cc1C)C(=O)NC1CCCCC1` [Compound 80] yielded a PCA in the series with anti-OVA IgE antibody (setting [2]) of 5.3. Moreover, the IC50 with Human lymphocyte worked out at 4.6 ng/mL.

Turning to `CC/C=C/CNc1ccc(-c2c(C)c(OC)c(/C=C(\C)C(=O)O)c(C)c2OC)cc1` [Compound 585], the PCA with anti-OVA IgE antibody (setting [2]) was determined as 1.0. Also, the IC50 in the series on Human lymphocyte was found to be 4.8 ng/mL.

With `C/C(=C\c1cc(C)c(-c2ccc3[nH]ccc3c2)cc1C)C(=O)NC(C)C` [Compound 76], the PCA in the series on anti-OVA IgE antibody (setting [2]) is recorded as 4.3. Further, the IC50 in the series on Human lymphocyte was 1.6 ng/mL.

Take `CCS(=O)(=O)NC(=O)/C(C)=C/c1cc(C)c(-c2ccc(NCc3ccco3)cc2F)cc1C` [Compound 347]: the IC50 in series [1] is 6.16 nM; in the series on Human lymphocyte it was 60 ng/mL. The compound also displayed a PCA with anti-OVA IgE antibody (setting [3]) of 2.0.

Regarding `C/C(=C\c1cc(C)c(-c2ccc(NC(C)C)cc2F)cc1C)C(=O)NC(C)C` [Compound 122], the IC50 is 10.5 nM in series [1] and 0.5 ng/mL in the series with Human lymphocyte. Besides, the PCA in the series on anti-OVA IgE antibody (setting [2]) is 4.7.

Take `CCC/C=C/CNc1ccc(-c2c(C)c(OC)c(/C=C(\C)C(=O)O)c(C)c2OC)cc1` [Compound 573]: the PCA in the series on anti-OVA IgE antibody (setting [2]) is 0<. In addition, the IC50 with Human lymphocyte amounted to 6.6 ng/mL.

As to `C/C(=C\c1ccc(-c2ccc3[nH]ccc3c2)cc1)C(=O)O` [Compound 1], the melting point lay within 195 to 198 °C.

Consider `COc1c(C)c(-c2ccc(NC3CCCCC3)cc2)c(OC)c(C)c1/C=C(\C)C(=O)O` [Compound 559], for which the PCA in the series with anti-OVA IgE antibody (setting [2]) was found to be 4. The IC50 in the series with Human lymphocyte turned out to be 7.2 ng/mL.

For `C/C(=C\c1c(C)c(F)c(-c2ccc(NC(C)C)nc2)c(C)c1F)C(=O)NC(C)C` [Compound 484], the PCA in the series with anti-OVA IgE antibody (setting [3]) is given as 0<. For the same compound, the IC50 in the series with Human lymphocyte came to 9.3 ng/mL.

As to `C/C(=C\c1c(C)c(C)c(-c2ccc(NC(C)C)cc2F)c(C)c1C)C(=O)N[C@H](C)C(=O)O` [Compound 420], the PCA in the series with anti-OVA IgE antibody (setting [3]) was 0<. The IC50 in the series on Human lymphocyte is 39 ng/mL.

`C/C(=C\c1ccc(-c2ccc3[nH]ccc3c2)cc1)C(=O)NC1CCCC1` [Compound 4] returned a melting point of 154 to 157 °C.

Take `Cc1cc(-c2ccc(NC3CCCC3)cc2)c(C)cc1/C=C(\F)C(=O)NC(C)C` [Compound 397]: the values for the IC50 (in series [1]; with Human lymphocyte) were 6.84 nM and 0.3 ng/mL, respectively. In the series with anti-OVA IgE antibody (dose 20 mg/kg orally for consecutive 10 days), the PCA was 0<.

In the series with anti-OVA IgE antibody (setting [3]), `COc1cc(-c2ccc(NC(C)C)cc2F)c(OC)cc1/C(C)=C/C(=O)NC(C)C` [Compound 40] showed a PCA of 1.3. The half-inhibitory concentration (IC50) with Human lymphocyte is 3.7 ng/mL.

For the compound `CC/C(=C\c1cc(C)c(-c2ccc(NC(C)C)cc2)cc1C)C(=O)NC1CCCC1` [Compound 142], in the series with anti-OVA IgE antibody (setting [2]), the PCA is reported as 0.0. Also, the IC50 in the series on Human lymphocyte was 8.4 ng/mL.
